# System: ONGHEPA1 cells
# Assay: TGF-β-induced fibrosis of ONGHEPA1 cells (microscope)
# Format: cell-based, mouse
# Conditions: 24 hr; for inhibition of the progress of fibrosis (differentiation into myofibroblasts): TGF-β 5 ng/mL plus 50 μM compound; for toxicity to ONGHEPA1 cells: TGF-β plus 50 μM compound
# Text: The liver tissue was separated from C57BL/6 mice and a single-cell suspension thereof was made, and immortalized cells were obtained through continuous culture and were confirmed to be mesenchymal stem cells (MSC) of HSC via RT-PCR (Reverse Transcription Polymerase Chain Reaction) using MC (Immunohistochemistry) and FACS (Fluorescence-Activated Cell Sorting). This cell line was called “ONGHEPA1”, and was deposited with the Korean Collection for Type Cultures (KCTC) of the Korea Research Institute of Bioscience and Biotechnology and assigned accession number KCTC13086BP.
# Using such properties of HSC, the fibrotic characteristics of ONGHEPA1 were measured. To induce fibrosis, TGF-β (transforming growth factor beta) was added, and the morphologies of the cells were observed after 6 hr, 12 hr, 24 hr, and 48 hr. Consequently, fibrosis was confirmed to progress considerably after 24 hr and further progress after 48 hr (A of FIG. 6).
# While ONGHEPA1 cells were incubated, they were treated with TGF-β to induce fibrosis, and 50 μM of eupatilin was added to the culture medium.
# In order to more clearly evaluate the effect of eupatilin as above, changes were measured when ONGHEPA1 cells were first treated with eupatilin, washed to remove eupatilin and then treated with TGF-β to induce fibrosis. […] This means that eupatilin is directly associated with the course of fibrosis to thus inhibit the progress of fibrosis.
# On the contrary, changes were measured when ONGHEPA1 cells were first treated with TGF-β to induce fibrosis, washed to remove TGF-β and then treated with eupatilin. […] Even when fibrosis was already progressed, eupatilin was able to restore the cells to their original normal condition.
# In order to more clearly evaluate whether eupatilin was able to restore the cells that already undergone fibrosis to normal cells, changes were measured when ONGHEPA1 cells were treated with TGF-β for 24 hr to induce complete fibrosis and then treated with eupatilin. […] This means that fibrosis that has progressed considerably can be effectively treated using eupatilin.
# The effects of various chromone derivatives other than eupatilin on fibrosis were measured in the same manner as in Example 3-3. While ONGHEPA1 cells were incubated, fibrosis was induced by TGF-β, and a chromone derivative was added at a concentration of 50 μM to the culture medium.
smiles,measurement,setting,value
COc1c(-c2ccccc2)oc2c(OC)c(O)cc(O)c2c1=O [ONGA100],inhibition of the progress of fibrosis (differentiation into myofibroblasts),,no effects or very low effects
same,inhibition of the progress of fibrosis (differentiation into myofibroblasts),listed as Chemical Formula 8,no effects on the inhibition of fibrosis
COc1c(-c2ccc(O)cc2)oc2cc(O)cc(O)c2c1=O [ONGB200],inhibition of the progress of fibrosis (differentiation into myofibroblasts),,no effects or very low effects
same,inhibition of the progress of fibrosis (differentiation into myofibroblasts),listed as Chemical Formula 10,no effects on the inhibition of fibrosis
"COc1cc2oc(-c3ccc(O)cc3)cc(=O)c2c(O)c1OC [ONGC200, 5-hydroxy-2-(4-hydroxyphenyl)-6,7-dimethoxy-chromone]",inhibition of the progress of fibrosis (differentiation into myofibroblasts),,effective at inhibiting the progress of fibrosis
COc1ccc(-c2cc(=O)c3c(O)c(O)c(O)cc3o2)cc1 [ONGD200],toxicity to ONGHEPA1 cells,,toxicity such as necrosis
COc1ccc(-c2oc3cc(O)c(OC)c(O)c3c(=O)c2OC)cc1O [ONGD400],toxicity to ONGHEPA1 cells,,toxicity such as necrosis
"COc1c(O)cc2oc(-c3ccc(O)cc3)cc(=O)c2c1O [ONGE200, 5,7-dihydroxy-2-(4-hydroxyphenyl)-6-methoxy-chromone]",inhibition of the progress of fibrosis (differentiation into myofibroblasts),,effective at inhibiting the progress of fibrosis
same,inhibition of the progress of fibrosis (differentiation into myofibroblasts),listed as Chemical Formula 5,superior fibrosis-inhibiting effects
O=c1cc(-c2ccc(O)c(O)c2O)oc2cc(O)cc(O)c12 [ONGE300],inhibition of the progress of fibrosis (differentiation into myofibroblasts),,no effects or very low effects
same,inhibition of the progress of fibrosis (differentiation into myofibroblasts),listed as Chemical Formula 11,no effects on the inhibition of fibrosis
"COc1cc2oc(-c3ccc(O)c(O)c3)cc(=O)c2c(O)c1OC [ONGH200, 2-(3,4-dihydroxyphenyl)-5-hydroxy-6,7-dimethoxy-chromone]",inhibition of the progress of fibrosis (differentiation into myofibroblasts),,effective at inhibiting the progress of fibrosis
same,inhibition of the progress of fibrosis (differentiation into myofibroblasts),listed as Chemical Formula 7,superior fibrosis-inhibiting effects
COc1cc(-c2oc3cc(O)c(OC)c(O)c3c(=O)c2OC)ccc1O [ONGH300],toxicity to ONGHEPA1 cells,,toxicity such as necrosis
"COc1c(O)cc2oc(-c3ccc(O)c(O)c3)cc(=O)c2c1O [ONGI300, 2-(3,4-dihydroxyphenyl)-5,7-dihydroxy-6-methoxy-chromone]",inhibition of the progress of fibrosis (differentiation into myofibroblasts),,effective at inhibiting the progress of fibrosis
same,inhibition of the progress of fibrosis (differentiation into myofibroblasts),listed as Chemical Formula 3,superior fibrosis-inhibiting effects
"COc1c(O)cc(O)c2c(=O)cc(-c3ccccc3)oc12 [wogonin, reference compound]",inhibition of the progress of fibrosis (differentiation into myofibroblasts),,no effects or very low effects
same,inhibition of the progress of fibrosis (differentiation into myofibroblasts),listed as Chemical Formula 9,no effects on the inhibition of fibrosis

# From US10744114B2, “Use of eupatilin as pharmaceutical composition for prevention and treatment of fibrosis using EMT inhibitory activity” (OSTEONEUROGEN INC., priority 2016, dated 2020)
